“And” between values parts separate entries of the source, which are not always exact repeats. Equal entries are not always repeated. “Also recorded” adds a separate entry of the source.
What was measured:
honeybee Para channel = honeybee Para channel (Apis mellifera, UniProt C9D7C5); test: Two-microelectrode voltage-clamp of Xenopus oocytes co-expressing Para channel and TipE; pyrethroid-induced tail currents; type: cell-based; details: for tail current induction: after conditioning pulses (-80mV to -20mV, 100 Hz), Para + TipE; for Hill coefficient: Hill fit of dose-response curve of tail current
honeybee Para channel, sequence (C9D7C5 1-2044): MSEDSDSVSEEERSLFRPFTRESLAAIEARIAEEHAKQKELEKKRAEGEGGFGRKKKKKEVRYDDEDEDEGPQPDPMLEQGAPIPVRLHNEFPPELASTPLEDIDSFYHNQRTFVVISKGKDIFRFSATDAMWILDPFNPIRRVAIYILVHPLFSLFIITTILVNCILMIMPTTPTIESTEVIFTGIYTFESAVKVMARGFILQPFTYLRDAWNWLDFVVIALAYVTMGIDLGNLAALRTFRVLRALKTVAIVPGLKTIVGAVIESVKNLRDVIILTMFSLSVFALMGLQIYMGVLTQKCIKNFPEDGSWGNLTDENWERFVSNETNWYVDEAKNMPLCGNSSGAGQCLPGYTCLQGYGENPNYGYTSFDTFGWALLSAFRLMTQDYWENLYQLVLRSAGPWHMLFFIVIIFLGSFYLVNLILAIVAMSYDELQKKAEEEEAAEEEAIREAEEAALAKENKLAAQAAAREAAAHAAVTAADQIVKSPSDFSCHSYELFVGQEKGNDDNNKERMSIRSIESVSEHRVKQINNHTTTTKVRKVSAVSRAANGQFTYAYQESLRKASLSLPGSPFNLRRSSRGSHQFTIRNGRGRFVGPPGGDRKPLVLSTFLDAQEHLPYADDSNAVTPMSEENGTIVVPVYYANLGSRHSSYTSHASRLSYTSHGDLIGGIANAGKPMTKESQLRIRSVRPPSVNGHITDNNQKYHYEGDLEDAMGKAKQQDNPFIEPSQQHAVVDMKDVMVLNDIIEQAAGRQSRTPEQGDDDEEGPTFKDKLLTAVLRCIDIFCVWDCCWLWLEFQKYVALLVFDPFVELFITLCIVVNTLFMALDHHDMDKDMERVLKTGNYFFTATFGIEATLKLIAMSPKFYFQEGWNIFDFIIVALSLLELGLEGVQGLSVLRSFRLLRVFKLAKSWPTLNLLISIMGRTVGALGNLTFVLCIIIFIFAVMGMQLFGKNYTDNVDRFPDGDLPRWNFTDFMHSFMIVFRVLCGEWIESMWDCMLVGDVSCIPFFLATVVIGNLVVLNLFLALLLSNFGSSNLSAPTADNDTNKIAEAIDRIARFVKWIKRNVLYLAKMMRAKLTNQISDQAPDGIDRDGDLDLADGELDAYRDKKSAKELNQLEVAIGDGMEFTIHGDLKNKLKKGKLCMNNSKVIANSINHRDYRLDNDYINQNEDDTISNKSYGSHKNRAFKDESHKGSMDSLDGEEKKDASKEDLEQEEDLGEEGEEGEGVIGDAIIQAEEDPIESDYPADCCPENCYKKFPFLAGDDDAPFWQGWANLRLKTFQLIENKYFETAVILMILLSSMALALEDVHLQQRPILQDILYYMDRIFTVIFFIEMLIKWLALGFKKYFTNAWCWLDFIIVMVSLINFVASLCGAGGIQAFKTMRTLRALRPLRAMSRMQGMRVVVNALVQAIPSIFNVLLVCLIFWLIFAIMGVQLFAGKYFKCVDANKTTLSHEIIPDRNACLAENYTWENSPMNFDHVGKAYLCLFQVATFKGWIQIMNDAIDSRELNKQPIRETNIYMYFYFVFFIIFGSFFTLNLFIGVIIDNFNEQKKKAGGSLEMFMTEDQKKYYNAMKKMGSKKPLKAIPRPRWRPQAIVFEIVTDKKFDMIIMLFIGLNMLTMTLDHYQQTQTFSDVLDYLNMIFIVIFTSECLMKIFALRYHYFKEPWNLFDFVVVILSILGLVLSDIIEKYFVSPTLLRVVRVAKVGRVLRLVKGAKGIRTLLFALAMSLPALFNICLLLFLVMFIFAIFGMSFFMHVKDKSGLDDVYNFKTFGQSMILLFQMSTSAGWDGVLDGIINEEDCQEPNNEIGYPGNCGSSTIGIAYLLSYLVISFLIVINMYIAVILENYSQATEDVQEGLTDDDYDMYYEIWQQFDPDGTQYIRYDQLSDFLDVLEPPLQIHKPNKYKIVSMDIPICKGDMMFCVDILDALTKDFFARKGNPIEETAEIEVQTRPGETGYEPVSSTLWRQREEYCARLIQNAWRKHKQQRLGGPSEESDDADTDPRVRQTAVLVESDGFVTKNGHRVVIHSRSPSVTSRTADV
Procedure: Xenopus oocytes were handled in accordance with the principles and guidelines of the Université Laval animal protection committee and the Canadian Council on Animal Care. […] They were then treated with 2 mg/ml collagenase (Collagenase type 1A from Clostridium histolyticum, Sigma) in OR2 solution for 1 h. They were then incubated for at least 1 h at 18°C in OR3 solution. Stage IV and V oocytes were microinjected with mRNA corresponding to the Para channel and the selected regulatory subunit (1 µg/µl for Para and 0.3 µg/µl for regulatory subunits, 50 nl/oocyte). The injected oocytes were incubated at 18°C in OR3 solution for at least 12 h before taking recordings.
Macroscopic currents from mRNA-injected oocytes were recorded in Ringer's solution using the two-microelectrode voltage-clamp technique. The membrane potential for the two-microelectrode voltage-clamp technique was controlled using a Warner oocyte clamp (Warner Instrument Corp.). The currents were filtered at 5 kHz (-3 dB; four-pole Bessel filter). The headstage of the Warner amplifier was attached to a plastic pool containing a 3M NaCl solution through a silver chloride wire connected to the bath solution using an agar bridge. The bridge contained 3% agar (w/v), 500 mM NMDG, and 10 mM HEPES (pH 7.4) and was threaded with a thin platinum/iridium wire to lower high-frequency impedance.
The pH was adjusted to 7.6 at 22°C using 1 M NaOH.
The dose-response curves obtained from these calculations were fitted to a Hill curve using the following equation: M = (MMax)/(1 + ((EC50/dose))^h), [formula] where h is the Hill coefficient, Mmax is the maximal fraction of channels affected, EC50 is the half-maximal effective concentration, and dose is the concentration at which the observation was made.
Current decay and tail current kinetics were fitted to the following equation when a single exponential was used: [formula] and to the following equation when double exponential was used: [formula] where y0 is the initial value, A is the weight of the exponential, and τ is the time constant of the exponential.

[1] = biological target: sodium current of honeybee antennal olfactory receptor neurons; details: Kadala A et al. 2011; cited from earlier work
drosophila Para channel = drosophila Para channel (Drosophila melanogaster, UniProt P35500); details: read-out: EC50 for the drosophila channel; Vais H et al. 2003, ATX-II used to inhibit inactivation; cited from earlier work
drosophila Para channel, sequence (P35500 whole entry): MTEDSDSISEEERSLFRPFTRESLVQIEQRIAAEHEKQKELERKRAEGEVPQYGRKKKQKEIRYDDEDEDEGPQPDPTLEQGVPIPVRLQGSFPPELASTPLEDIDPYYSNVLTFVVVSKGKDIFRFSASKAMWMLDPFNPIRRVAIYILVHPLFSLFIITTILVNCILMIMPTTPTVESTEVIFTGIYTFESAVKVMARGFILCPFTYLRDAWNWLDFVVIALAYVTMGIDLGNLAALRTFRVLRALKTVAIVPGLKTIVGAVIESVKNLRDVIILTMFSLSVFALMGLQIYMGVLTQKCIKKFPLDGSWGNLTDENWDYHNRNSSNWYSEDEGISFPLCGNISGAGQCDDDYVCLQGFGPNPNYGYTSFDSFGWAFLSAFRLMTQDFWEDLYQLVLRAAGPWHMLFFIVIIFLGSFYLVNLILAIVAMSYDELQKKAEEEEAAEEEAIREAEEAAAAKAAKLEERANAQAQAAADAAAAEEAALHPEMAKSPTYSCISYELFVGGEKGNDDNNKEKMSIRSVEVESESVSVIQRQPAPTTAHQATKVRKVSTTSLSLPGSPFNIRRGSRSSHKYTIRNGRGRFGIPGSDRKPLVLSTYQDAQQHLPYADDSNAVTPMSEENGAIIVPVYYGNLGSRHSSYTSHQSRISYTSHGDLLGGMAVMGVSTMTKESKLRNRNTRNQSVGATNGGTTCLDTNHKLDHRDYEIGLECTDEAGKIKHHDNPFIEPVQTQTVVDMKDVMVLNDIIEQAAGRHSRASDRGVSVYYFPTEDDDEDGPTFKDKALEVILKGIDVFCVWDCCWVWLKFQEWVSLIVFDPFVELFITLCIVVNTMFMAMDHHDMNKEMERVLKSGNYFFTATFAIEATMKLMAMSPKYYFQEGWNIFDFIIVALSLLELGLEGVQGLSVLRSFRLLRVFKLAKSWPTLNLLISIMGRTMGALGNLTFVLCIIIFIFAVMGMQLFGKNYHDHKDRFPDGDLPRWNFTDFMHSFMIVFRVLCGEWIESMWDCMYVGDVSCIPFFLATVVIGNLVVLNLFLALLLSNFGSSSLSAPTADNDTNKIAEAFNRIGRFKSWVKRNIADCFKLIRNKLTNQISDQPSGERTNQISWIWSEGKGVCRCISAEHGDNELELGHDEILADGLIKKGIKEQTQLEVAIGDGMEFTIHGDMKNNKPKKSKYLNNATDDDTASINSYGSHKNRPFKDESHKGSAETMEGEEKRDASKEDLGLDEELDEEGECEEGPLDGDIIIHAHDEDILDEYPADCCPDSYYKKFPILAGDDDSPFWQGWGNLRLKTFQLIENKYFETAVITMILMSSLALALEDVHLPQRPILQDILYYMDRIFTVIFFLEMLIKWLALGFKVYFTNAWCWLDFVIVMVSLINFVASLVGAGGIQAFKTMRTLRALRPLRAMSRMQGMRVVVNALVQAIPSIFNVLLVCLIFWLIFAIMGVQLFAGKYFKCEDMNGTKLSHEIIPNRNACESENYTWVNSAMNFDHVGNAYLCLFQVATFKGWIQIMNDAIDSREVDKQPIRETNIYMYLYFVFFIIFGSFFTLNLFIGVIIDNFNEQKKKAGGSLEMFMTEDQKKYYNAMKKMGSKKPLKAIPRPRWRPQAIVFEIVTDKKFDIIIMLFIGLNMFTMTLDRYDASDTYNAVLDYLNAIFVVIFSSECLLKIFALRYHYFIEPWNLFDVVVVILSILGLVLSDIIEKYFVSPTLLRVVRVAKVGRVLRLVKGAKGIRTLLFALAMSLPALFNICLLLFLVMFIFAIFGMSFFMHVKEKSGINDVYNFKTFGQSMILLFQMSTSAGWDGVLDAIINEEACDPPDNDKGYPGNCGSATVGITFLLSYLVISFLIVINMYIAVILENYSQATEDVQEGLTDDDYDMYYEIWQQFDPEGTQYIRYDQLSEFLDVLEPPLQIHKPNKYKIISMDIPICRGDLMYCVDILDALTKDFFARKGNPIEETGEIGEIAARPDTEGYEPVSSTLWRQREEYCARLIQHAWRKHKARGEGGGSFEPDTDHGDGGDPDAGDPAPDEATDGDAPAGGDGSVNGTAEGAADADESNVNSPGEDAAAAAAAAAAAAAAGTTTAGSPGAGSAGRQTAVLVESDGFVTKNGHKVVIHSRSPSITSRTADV

## CC(C)C(C(=O)OC(C#N)c1cccc(Oc2ccccc2)c1)c1ccc(Cl)cc1 (centres unmarked) [fenvalerate]
Honeybee Para channel; 10 µM
  tail current induction: induced a tail current
Honeybee Para channel
  Hill coefficient: 1.1817 and 1.18
Honeybee Para channel; double exponential fit
  relative weight of the slow component of tail current deactivation: 85.4%
  time constant of tail current deactivation, first exponential: 9.9 s
  time constant of tail current deactivation, second exponential: 31.8 s
Honeybee Para channel; fraction of channels bound vs dose, Hill fit, 1700 conditioning pulses, Para + TipE in oocytes, read-out: half maximal effective concentration (EC50)
  EC50: 289 nM and ~290 nM

## CC1(C)C(C=C(Cl)Cl)C1C(=O)OCc1cccc(Oc2ccccc2)c1 (centres unmarked) [permethrin]
Honeybee Para channel; 10 µM in extracellular medium, Para co-expressed with TipE
  shifts in activation, inactivation, or recovery from inactivation: no significant effect; also recorded: did not induce statistically significant shifts
Honeybee Para channel; 10 µM
  tail current induction: induced tail currents
Honeybee Para channel; 10 µM, tail current amplitude
  number of conditioning pulses at which the maximal effect is reached: 200 pulses
Honeybee Para channel
  Hill coefficient: 0.8263 and 0.83
Honeybee Para channel; single exponential fit
  time constant of deactivation of tail currents (single exponential): 0.93 s
Honeybee Para channel; tail current after 200 conditioning pulses, linear voltage-dependence
  inversion (reversal potential) of tail current: approximately +10 mV
[1]
  EC50: 3500 nM
Drosophila Para channel
  EC50: 12 nM

— EP3040345A1, “Sodium channel subunits of pollinator insects and uses thereof” (Centre National de la Recherche Scientifique (CNRS), priority 2014, dated 2016)
